We go through 40 substances from patent publication US10159726B2, “Peptides, combination of peptides and scaffolds for use in immunotherapeutic treatment of various cancers” (Immatics Biotechnologies GmbH, priority 2015, dated 2018).

In experiment [1] the test system is CD8+ T cells of healthy HLA-A*24+ donor. The experiment is described as follows: In vitro T-cell priming (immunogenicity) with aAPCs loaded with HLA-A*24 peptide/MHC and anti-CD28, multimer readout. It counts as cell-based, human. The conditions noted are these: for in vitro immunogenicity, Wells positive [%]: HLA-A*24 peptides, in vitro priming, multimer readout; for peptide-specific in vitro CD8+ T cell response, 2D multimer staining: healthy HLA-A*24+ donor, three cycles of stimulation, FIG. 5, frequencies only in the figure. The method, then:
In order to obtain information regarding the immunogenicity of the TUMAPs of the present invention, the inventors performed investigations using an in vitro T-cell priming assay based on repeated stimulations of CD8+ T cells with artificial antigen presenting cells (aAPCs) loaded with peptide/MHC complexes and anti-CD28 antibody.
PBMCs and isolated CD8+ lymphocytes were incubated in T-cell medium (TCM) until use consisting of RPMI-Glutamax (Invitrogen, Karlsruhe, Germany) supplemented with 10% heat inactivated human AB serum (PAN-Biotech, Aidenbach, Germany), 100 U/ml Penicillin/100 μg/ml Streptomycin (Cambrex, Cologne, Germany), 1 mM sodium pyruvate (CC Pro, Oberdorla, Germany), 20 μg/ml Gentamycin (Cambrex). 2.5 ng/ml IL-7 (PromoCell, Heidelberg, Germany) and 10 U/ml IL-2 (Novartis Pharma, Nürnberg, Germany) were also added to the TCM at this step.
Generation of pMHC/anti-CD28 coated beads, T-cell stimulations and readout was performed in a highly defined in vitro system using four different pMHC molecules per stimulation condition and 8 different pMHC molecules per readout condition.
The purified co-stimulatory mouse IgG2a anti human CD28 Ab 9.3 (Jung et al., 1987) was chemically biotinylated using Sulfo-N-hydroxysuccinimidobiotin as recommended by the manufacturer (Perbio, Bonn, Germany). Beads used were 5.6 μm diameter streptavidin coated polystyrene particles (Bangs Laboratories, Illinois, USA).
800.000 beads/200 μl were coated in 96-well plates in the presence of 4×12.5 ng different biotin-pMHC, washed and 600 ng biotin anti-CD28 were added subsequently in a volume of 200 μl. Stimulations were initiated in 96-well plates by co-incubating […] CD8+ T cells with 2×10^5 washed coated beads in 200 μl TCM supplemented with 5 ng/ml IL-12 (PromoCell) for 3 days at 37° C. Half of the medium was then exchanged by fresh TCM supplemented with 80 U/ml IL-2 and incubating was continued for 4 days at 37° C. This stimulation cycle was performed for a total of three times. For the pMHC multimer readout using 8 different pMHC molecules per condition, a two-dimensional combinatorial coding approach was used as previously described (Andersen et al., 2012) with minor modifications encompassing coupling to 5 different fluorochromes. Finally, multimeric analyses were performed by staining the cells with Live/dead near IR dye (Invitrogen, Karlsruhe, Germany), CD8-FITC antibody clone SK1 (BD, Heidelberg, Germany) and fluorescent pMHC multimers. For analysis, a BD LSRII SORP cytometer equipped with appropriate lasers and filters was used. Peptide specific cells were calculated as percentage of total CD8+ cells. Evaluation of multimeric analysis was done using the FlowJo software (Tree Star, Oregon, USA). In vitro priming of specific multimer+ CD8+ lymphocytes was detected by comparing to negative control stimulations.
Exemplary flow cytometry results after TUMAP-specific multimer staining for 2 peptides of the invention are shown in FIG. 3 together with corresponding negative controls. Exemplary flow cytometry results after TUMAP-specific multimer staining for 7 peptides of the invention are shown in FIGS. 4 and 5 together with corresponding negative controls.

For another experiment, the system named is HLA-A*24. The experiment is described as follows: MHC binding assay, UV-ligand exchange with beta2m ELISA, HLA-A*24. The arrangement: species or system human. To be noted: binding to HLA-A*24, UV-ligand exchange, β2m ELISA. From the text: Candidate peptides for T cell based therapies according to the present invention were further tested for their MHC binding capacity (affinity). The individual peptide-MHC complexes were produced by UV-ligand exchange, where a UV-sensitive peptide is cleaved upon UV-irradiation, and exchanged with the peptide of interest as analyzed. Only peptide candidates that can effectively bind and stabilize the peptide-receptive MHC molecules prevent dissociation of the MHC complexes. To determine the yield of the exchange reaction, an ELISA was performed based on the detection of the light chain (β2m) of stabilized MHC complexes. The assay was performed as generally described in Rodenko et al. (Rodenko et al., 2006).
96 well MAXISorp plates (NUNC) were coated over night with 2 ug/ml streptavidin in PBS at room temperature, washed 4× and blocked for 1 h at 37° C. in 2% BSA containing blocking buffer. […] Peptide-MHC monomers of the UV-exchange reaction were diluted 100 fold in blocking buffer. Samples were incubated for 1 h at 37° C., washed four times, incubated with 2 ug/ml HRP conjugated anti-β2m for 1 h at 37° C., washed again and detected with TMB solution that is stopped with […]. Absorption was measured at 450 nm. Candidate peptides that show a high exchange yield (preferably higher than 50%, most preferred higher than 75%) are generally preferred for a generation and production of antibodies or fragments thereof, and/or T cell receptors or fragments thereof, as they show sufficient avidity to the MHC molecules and prevent dissociation of the MHC complexes.
A general note: An ELISA detects its analyte on a solid surface through an enzyme-linked reagent.

As to “98 (VFPRLHNVLF; listed as Homo sapiens) [compound 98]”, in experiment [1], the “in vitro immunogenicity, Wells positive [%]” value (shortened to “in vitro immunogenicity … [%]”) is “+ (<20% = +)”.

For the substance “365 (VFIDHPVHL; listed as Homo sapiens) [compound 365]”, the “Peptide exchange (MHC class I binding score, peptide exchange yield)” value (“Peptide exchange” below) in the experiment on HLA-A*24 was “++++ (>=75% = ++++)”. Besides, the “in vitro immunogenicity … [%]” value in experiment [1] was “+ (<20% = +)”.

As to “167 (RYGFYYVEF; listed as Homo sapiens) [compound 167]”, in experiment [1], the “in vitro immunogenicity … [%]” value is given as “++++ (>=70% = ++++)”.

For the substance “164 (HYVPATKVF; listed as Homo sapiens) [compound 164]”, the “in vitro immunogenicity … [%]” value in experiment [1] is given as “+ (<20% = +)”.

“344 (EYNSDLHQF; listed as Homo sapiens) [compound 344]”: the “in vitro immunogenicity … [%]” value in experiment [1] is listed as “+ (<20% = +)”.

Consider “160 (RYGDGGSSF; listed as Homo sapiens) [compound 160]”, for which the “in vitro immunogenicity … [%]” value in experiment [1] is “+ (<20% = +)”.

In the case of “105 (IYNETITDLL; listed as Homo sapiens) [compound 105]”, in experiment [1], the “in vitro immunogenicity … [%]” value is reported as “+ (<20% = +)”.

With “VYEKNGYIYF (listed as Homo sapiens) [SEQ ID NO: 174]”, the “peptide-specific in vitro CD8+ T cell response, 2D multimer staining” value (“peptide-specific” below) in experiment [1] is listed as “peptide-specific in vitro CD8+ T cell responses”.

On to “158 (IYEETRGVLKVF; listed as Homo sapiens) [compound 158]”, for which the “in vitro immunogenicity … [%]” value in experiment [1] was “+ (<20% = +)”.

With “103 (NYIPVKNGKQF; listed as Homo sapiens) [compound 103]”, in experiment [1], the “in vitro immunogenicity … [%]” value is listed as “+ (<20% = +)”.

As to “359 (NYGVLHVTF; listed as Homo sapiens) [compound 359]”, the “Peptide exchange” value in the experiment on HLA-A*24 is recorded as “++++ (>=75% = ++++)”. In addition, in experiment [1], the “in vitro immunogenicity … [%]” value is “+ (<20% = +)”.

Regarding “358 (YYSEVPVKL; listed as Homo sapiens) [compound 358]”, in experiment [1], the “in vitro immunogenicity … [%]” value is given as “++++ (>=70% = ++++)”.

“106 (IYNETVRDLL; listed as Homo sapiens) [compound 106]”: the “in vitro immunogenicity … [%]” value in experiment [1] was “+ (<20% = +)”.

Regarding “115 (RYLNKSFVL; listed as Homo sapiens) [compound 115]”, in experiment [1], the “in vitro immunogenicity … [%]” value is “+ (<20% = +)”.

Turning to “190 (LYSELTETL; listed as Homo sapiens) [compound 190]”, the “in vitro immunogenicity … [%]” value in experiment [1] was “++++ (>=70% = ++++)”.

Regarding “354 (VYNEQIRDLL; listed as Homo sapiens) [compound 354]”, in experiment [1], the “in vitro immunogenicity … [%]” value was “+ (<20% = +)”.

For “157 (DYIPASGFALF; listed as Homo sapiens) [compound 157]”, the “in vitro immunogenicity … [%]” value in experiment [1] is on record as “+ (<20% = +)”.

Take “163 (RYLTISNLQF; listed as Homo sapiens) [compound 163]”: the “Peptide exchange” value in the experiment with HLA-A*24 was “++++ (>=75% = ++++)”. In addition, the “in vitro immunogenicity … [%]” value in experiment [1] is reported as “+ (<20% = +)”.

Regarding “180 (KYLQVVGMF; listed as Homo sapiens) [compound 180]”, the “in vitro immunogenicity … [%]” value in experiment [1] is listed as “+ (<20% = +)”.

On to “156 (YYMELTKLLL; listed as Homo sapiens) [compound 156]”, for which the “Peptide exchange” value with HLA-A*24 was “++++ (>=75% = ++++)”. Moreover, the “in vitro immunogenicity … [%]” value in experiment [1] is reported as “+ (<20% = +)”.

In the case of “166 (FYTLPFHLI; listed as Homo sapiens) [compound 166]”, in the experiment with HLA-A*24, the “Peptide exchange” value is “++++ (>=75% = ++++)”. Also, the “in vitro immunogenicity … [%]” value in experiment [1] was “++++ (>=70% = ++++)”.

In the case of “QYILAVPVL (listed as Homo sapiens) [SEQ ID NO: 99]”, the “peptide-specific” value in experiment [1] is “peptide-specific in vitro CD8+ T cell responses”.

For “175 (LYSPVPFTL; listed as Homo sapiens) [compound 175]”, the “in vitro immunogenicity … [%]” value in experiment [1] is recorded as “+ (<20% = +)”.

As for “363 (SYAELGTTI; listed as Homo sapiens) [compound 363]”, in experiment [1], the “in vitro immunogenicity … [%]” value is “+ (<20% = +)”.

As for “172 (VFIFKGNEF; listed as Homo sapiens) [compound 172]”, the “Peptide exchange” value with HLA-A*24 is “++++ (>=75% = ++++)”. Also, the “in vitro immunogenicity … [%]” value in experiment [1] is on record as “+ (<20% = +)”.

For the substance “142 (VYVDDIYVI; listed as Homo sapiens) [compound 142]”, in experiment [1], the “in vitro immunogenicity … [%]” value is “++++ (>=70% = ++++)”.

For “137 (EYLHNCSYF; listed as Homo sapiens) [compound 137]”, the “Peptide exchange” value in the experiment with HLA-A*24 is reported as “++++ (>=75% = ++++)”. Moreover, the “in vitro immunogenicity … [%]” value in experiment [1] is recorded as “+ (<20% = +)”.

In the case of “186 (VFTTSSNIF; listed as Homo sapiens) [compound 186]”, in the experiment on HLA-A*24, the “Peptide exchange” value is on record as “++++ (>=75% = ++++)”. The “in vitro immunogenicity … [%]” value in experiment [1] is given as “+ (<20% = +)”.

“VYRVYVTTF (listed as Homo sapiens) [SEQ ID NO: 119]”: the “peptide-specific” value in experiment [1] is listed as “peptide-specific in vitro CD8+ T cell responses”.

For the substance “VYVDDIYVI (listed as Homo sapiens) [SEQ ID NO: 142]”, the “peptide-specific” value in experiment [1] was “peptide-specific in vitro CD8+ T cell responses”.

As to “177 (VYFKAGLDVF; listed as Homo sapiens) [compound 177]”, the “in vitro immunogenicity … [%]” value in experiment [1] was “+ (<20% = +)”.

Take “162 (KYTSYILAF; listed as Homo sapiens) [compound 162]”: the “in vitro immunogenicity … [%]” value in experiment [1] was “+ (<20% = +)”.

Turning to “161 (KYPDIVQQF; listed as Homo sapiens) [compound 161]”, the “in vitro immunogenicity … [%]” value in experiment [1] was “+ (<20% = +)”.

Turning to “353 (TYGKIDLGF; listed as Homo sapiens) [compound 353]”, the “in vitro immunogenicity … [%]” value in experiment [1] is “+ (<20% = +)”.

As for “104 (SYLTWHQQI; listed as Homo sapiens) [compound 104]”, the “Peptide exchange” value in the experiment on HLA-A*24 is on record as “++++ (>=75% = ++++)”. Further, the “in vitro immunogenicity … [%]” value in experiment [1] is reported as “+ (<20% = +)”.

As to “132 (RYPALFPVL; listed as Homo sapiens) [compound 132]”, the “Peptide exchange” value in the experiment on HLA-A*24 is recorded as “++++ (>=75% = ++++)”. Moreover, in experiment [1], the “in vitro immunogenicity … [%]” value is listed as “+ (<20% = +)”.

Take “111 (VYVQILQKL; listed as Homo sapiens) [compound 111]”: the “in vitro immunogenicity … [%]” value in experiment [1] was “+ (<20% = +)”.

Take “181 (VYPPYLNYL; listed as Homo sapiens) [compound 181]”: in experiment [1], the “in vitro immunogenicity … [%]” value is given as “++++ (>=70% = ++++)”.

Turning to “96 (YYTQYSQTI; listed as Homo sapiens) [compound 96]”, the “Peptide exchange” value in the experiment on HLA-A*24 is recorded as “++++ (>=75% = ++++)”. Besides, the “in vitro immunogenicity … [%]” value in experiment [1] is reported as “+ (<20% = +)”.

On to “174 (VYEKNGYIYF; listed as Homo sapiens) [compound 174]”, for which the “in vitro immunogenicity … [%]” value in experiment [1] was “++++ (>=70% = ++++)”.
